Measured values: patent publication US11866408B2, “N,N-dimethyltryptamine and related psychedelics and uses thereof” (Terran Biosciences Inc., priority 2021, dated 2024)
Structures can show the parent of a compound that is named as a salt.

How the values were obtained:
[1] = Single oral dose pharmacokinetics study in rats (10 mg/kg PO; plasma levels of prodrug and of metabolite DMT or 5-MeO-DMT by LC-MS/MS); conditions: for Mean Plasma Concentration (ng/mL) of metabolite DMT: analyte DMT after oral dosing of prodrug 10 mg/Kg; for Mean Plasma Concentrations of metabolite DMT: prodrug 10 mg/Kg oral, male SD rats
[2] = Single intravenous dose pharmacokinetics study in rats (1 mg/kg IV; plasma levels of prodrug and of DMT or 5-MeO-DMT by LC-MS/MS); conditions: IV 1 mg/kg, plasma, analyte = dosed compound; for AUC(0-t) / AUC(0-inf) / clearance / MRT / Vd / half-life: male, Sprague-Dawley, rat, iv, 1 mg/kg; for clearance: CL/CL_F (mL/min/kg); for MRT: MRT (h); for Vd: Vdss (L/kg); for half-life: t1/2 (h)
[3] = oral 10 mg/Kg, analyte = dosed prodrug, mean
[4] = oral 10 mg/Kg, analyte = dosed prodrug, median
[5] = male, Sprague-Dawley, rat, plasma, po, 10 mg/kg, AUC0-last (h*ng/mL), oral 10 mg/Kg, analyte = dosed prodrug, mean
[6] = male, Sprague-Dawley, rat, plasma, po, 10 mg/kg, Cmax (ng/mL), oral 10 mg/Kg, analyte = dosed prodrug, mean
[7] = PO 10 mg/kg, plasma, analyte = dosed compound
[8] = male, Sprague-Dawley, rat, plasma, po, 10 mg/kg, C0/Cmax (nM), PO 10 mg/kg, analyte = dosed compound
[9] = male, Sprague-Dawley, rat, plasma, po, 10 mg/kg, C0/Cmax (ng/mL), PO 10 mg/kg, analyte = dosed compound, mean/median
[10] = male, Sprague-Dawley, rat, plasma, po, 10 mg/kg, AUC0-t (nM.hr), PO 10 mg/kg, analyte = dosed compound
[11] = male, Sprague-Dawley, rat, plasma, po, 10 mg/kg, AUC0-t (ng.hr/mL), PO 10 mg/kg, analyte = dosed compound

## COc1ccc2c(c1)c(CCN(C)C)cn2C(C)=O [5-MeO-DMT AP-1, 1-[3-[2-(dimethylamino)ethyl]-5-methoxy-indol-1-yl]ethanone]
[1]; [3]
  AUC0-last: 180 ng·h/mL
  Cmax: 69 ng/mL
  T½: 74.4 min
[1]; [4]
  Tmax: 30 min
  tlast: 7.00 h

## COc1ccc2c(c1)c(CCN(C)C)cn2C(=O)OC(C)C [5-MeO-DMT CP-2, isopropyl 3-[2-(dimethylamino)ethyl]-5-methoxy-indole-1-carboxylate]
[1]; [5]
  AUC(0-t): 6.8 ng·h/mL
[1]; [6]
  Cmax: 5.7 ng/mL
[1]; [4]
  tlast: 2.50 h

## COc1ccc2c(c1)c(CCN(C)C)cn2C(=O)OC(C)(C)C [5-MeO-DMT CP-3, tert-butyl 3-[2-(dimethylamino)ethyl]-5-methoxy-indole-1-carboxylate]
[1]; [5]
  AUC(0-t): 17.3 ng·h/mL
[1]; [6]
  Cmax: 7.51 ng/mL
[1]; [4]
  tlast: 4.00 h

## CCCOC(=O)n1cc(CCN(C)C)c2cc(OC)ccc21 [5-MeO-DMT CP-4, propyl 3-[2-(dimethylamino)ethyl]-5-methoxy-indole-1-carboxylate]
[1]; [5]
  AUC(0-t): 6.45 ng·h/mL
[1]; [6]
  Cmax: 4.85 ng/mL
[1]; [4]
  tlast: 3.00 h

## COc1ccc2c(c1)c(CCN(C)C)cn2C(=O)CCC(=O)O [5-MeO-DMT Non-Lipid Prodrug 5, 4-(3-(2-(dimethylamino)ethyl)-5-methoxy-1H-indol-1-yl)-4-oxobutanoic acid]
[1]; [5]
  AUC(0-t): 85.7 ng·h/mL
[1]; [6]
  Cmax: 23 ng/mL
[1]; [4]
  tlast: 7.00 h

## COc1ccc2c(c1)c(CCN(C)C)cn2C(=O)CCCC(=O)O [5-MeO-DMT Non-Lipid Prodrug 6, 5-(3-(2-(dimethylamino)ethyl)-5-methoxy-1H-indol-1-yl)-5-oxopentanoic acid]
[1]; [5]
  AUC(0-t): 362 ng·h/mL
[1]; [6]
  Cmax: 106 ng/mL
[1]; [4]
  tlast: 7.00 h

## COc1ccc2[nH]cc(CCN(C)C)c2c1 [Compound 5-MeO-DMT, 5-methoxy-N,N-dimethyltryptamine, reference compound]
[2]
  AUC % Back Extrapolation to C0: 26.8%
  AUC % Extrapolation to infinity: 0.204%
  Clast: 1.68 ng/mL
  tlast: 5.50 h
  clearance: 24.6 mL/min/kg
  MRT: 37.4 min
  Vd: 0.818 L/kg
  half-life: 30.6 min
[2]; AUC0-t (nM.hr)
  AUC(0-t): 4.95 µM·h
[2]; AUC0-t (ng.hr/mL)
  AUC(0-t): 1080 ng·h/mL
[2]; AUCinf (nM.hr)
  AUC(0-inf): 4.95 µM·h
[2]; AUCinf (ng.hr/mL)
  AUC(0-inf): 1080 ng·h/mL
[1]; [7]
  Clast: 1.95 ng/mL
  tlast: 2.00 h
[1]; [8]
  Cmax: 13.9 nM
[1]; [9]
  Cmax: 3.03 ng/mL

## CCOC(=O)n1cc(CCN(C)C)c2cc(OC)ccc21 [Compound 19, Ethyl 3-[2-(dimethylamino)ethyl]-5-methoxy-indole-1-carboxylate]
[2]
  AUC % Back Extrapolation to C0: 59.7%
  AUC % Extrapolation to infinity: 0.104%
  Clast: 2.95 ng/mL
  tlast: 5.50 h
[2]; AUC0-t (nM.hr)
  AUC(0-t): 14.4 µM·h
[2]; AUC0-t (ng.hr/mL)
  AUC(0-t): 4170 ng·h/mL
[1]; [7]
  Clast: 1.90 ng/mL
  tlast: 24.0 h
[1]; [10]
  AUC(0-t): 0.237 µM·h
[1]; [11]
  AUC(0-t): 68.8 ng·h/mL
[1]; [8]
  Cmax: 8.15 nM
[1]; [9]
  Cmax: 2.37 ng/mL

## CCOC(=O)n1cc(CCN(C)C)c2ccccc21 [Compound 20, Ethyl 3-[2-(dimethylamino)ethyl]indole-1-carboxylate]
[2]
  AUC % Back Extrapolation to C0: 17.5%
  AUC % Extrapolation to infinity: 1.073%
  Clast: 3.26 ng/mL
  tlast: 4.00 h
  clearance: 67.9 mL/min/kg
  MRT: 48.6 min
  Vd: 3.53 L/kg
  half-life: 36.8 min
[2]; AUC0-t (nM.hr)
  AUC(0-t): 1.07 µM·h
[2]; AUC0-t (ng.hr/mL)
  AUC(0-t): 279 ng·h/mL
[2]; AUCinf (nM.hr)
  AUC(0-inf): 1.08 µM·h
[2]; AUCinf (ng.hr/mL)
  AUC(0-inf): 282 ng·h/mL
[1]; [7]
  Clast: 3.01 ng/mL
  tlast: 1.00 h
[1]; [10]
  AUC(0-t): 0.0184 µM·h
[1]; [11]
  AUC(0-t): 4.78 ng·h/mL
[1]; [8]
  Cmax: 44.3 nM
[1]; [9]
  Cmax: 11.5 ng/mL

## CN(C)CCc1cn(C(=O)N2CCC(N3CCCCC3)CC2)c2ccccc12 [DMT 4-Piperidinopiperidine urea formate, [1,4′-Bipiperidin]-1′-yl(3-(2-(dimethylamino)ethyl)-1H-indol-1-yl)methanone]
[1]; 0.50 h
  Mean Plasma Concentration (ng/mL) of metabolite DMT: BLQ (BLQ: Below Lower Limit of Quantification (0.5 ng/mL))
[1]; 1.00 h
  Mean Plasma Concentration (ng/mL) of metabolite DMT: BLQ (BLQ: Below Lower Limit of Quantification (0.5 ng/mL))
[1]; 2.00 h
  Mean Plasma Concentration (ng/mL) of metabolite DMT: BLQ (BLQ: Below Lower Limit of Quantification (0.5 ng/mL))
[1]; 4.00 h
  Mean Plasma Concentration (ng/mL) of metabolite DMT: BLQ (BLQ: Below Lower Limit of Quantification (0.5 ng/mL))
[1]; 7.00 h
  Mean Plasma Concentration (ng/mL) of metabolite DMT: BLQ (BLQ: Below Lower Limit of Quantification (0.5 ng/mL))
[1]; 24.0 h
  Mean Plasma Concentration (ng/mL) of metabolite DMT: BLQ (BLQ: Below Lower Limit of Quantification (0.5 ng/mL))

## CC(=O)n1cc(CCN(C)C)c2ccccc21 [DMT AP-1, 1-[3-[2-(dimethylamino)ethyl]indol-1-yl]ethenone]
[1]; [5]
  AUC(0-t): 2.16 ng·h/mL
[1]; [6]
  Cmax: 3.53 ng/mL
[1]; [4]
  tlast: 1.00 h

## CN(C)CCc1cn(C(=O)c2ccccc2)c2ccccc12 [DMT Benzamide]
[1]; [5]
  AUC(0-t): 66.5 ng·h/mL
[1]; [6]
  Cmax: 17.7 ng/mL
[1]; [4]
  tlast: 7.00 h

## CC(C)OC(=O)n1cc(CCN(C)C)c2ccccc21 [DMT CP-2, isopropyl 3-[2-(dimethylamino)ethyl]indole-1-carboxylate]
[1]; male, Sprague-Dawley, rat, plasma, po, 10 mg/kg, AUC0-24 (h*ng/mL), oral 10 mg/Kg, analyte = dosed prodrug, mean
  AUC(0-t): 60.9 ng·h/mL
[1]; [5]
  AUC(0-t): 39.4 ng·h/mL
[1]; [6]
  Cmax: 17.4 ng/mL
[1]; [4]
  tlast: 4.00 h

## CN(C)CCc1cn(C(=O)OC(C)(C)C)c2ccccc12 [DMT CP-3, tert-butyl 3-[2-(dimethylamino)ethyl]indole-1-carboxylate]
[1]; [5]
  AUC(0-t): 13.8 ng·h/mL
[1]; [6]
  Cmax: 11.1 ng/mL
[1]; [4]
  tlast: 4.00 h

## CCCOC(=O)n1cc(CCN(C)C)c2ccccc21 [DMT CP-4, propyl 3-[2-(dimethylamino)ethyl]indole-1-carboxylate]
[1]; [5]
  AUC(0-t): 28.2 ng·h/mL
[1]; [6]
  Cmax: 14.3 ng/mL
[1]; [4]
  tlast: 4.50 h

## CC(C)COC(=O)n1cc(CCN(C)C)c2ccccc21 [DMT CP-5, isobutyl 3-[2-(dimethylamino)ethyl]indole-1-carboxylate]
[1]; [5]
  AUC(0-t): 8.63 ng·h/mL
[1]; [6]
  Cmax: 2.92 ng/mL
[1]; [4]
  tlast: 4.00 h

## CN(C)CCc1cn(C(=O)N(C)C)c2ccccc12 [DMT N,N-dimethyl urea formate, 3-[2-(dimethylamino)ethyl]-N,N-dimethyl-indole-1-carboxamide]
[1]; time 0.50 h
  Mean Plasma Concentrations of metabolite DMT: BLQ (BLQ: Below Lower Limit of Quantification (0.5 ng/mL))
[1]; time 1.00 h
  Mean Plasma Concentrations of metabolite DMT: BLQ (BLQ: Below Lower Limit of Quantification (0.5 ng/mL))
[1]; time 2.00 h
  Mean Plasma Concentrations of metabolite DMT: BLQ (BLQ: Below Lower Limit of Quantification (0.5 ng/mL))
[1]; time 4.00 h
  Mean Plasma Concentrations of metabolite DMT: BLQ (BLQ: Below Lower Limit of Quantification (0.5 ng/mL))
[1]; time 7.00 h
  Mean Plasma Concentrations of metabolite DMT: BLQ (BLQ: Below Lower Limit of Quantification (0.5 ng/mL))
[1]; time 24.0 h
  Mean Plasma Concentrations of metabolite DMT: BLQ (BLQ: Below Lower Limit of Quantification (0.5 ng/mL))

## CN(C)CCc1cn(C(=O)CC(C)(C)C(=O)O)c2ccccc12 [DMT-3,3-dimethylsuccinate hydrochloride, 4-(3-(2-(dimethylamino)ethyl)-1H-indol-1-yl)-2,2-dimethyl-4-oxobutanoic acid HCl salt]
[1]; time 0.50 h
  Mean Plasma Concentrations of metabolite DMT: BLQ (BLQ: Below Lower Limit of Quantification (0.5 ng/mL))
[1]; time 1.00 h
  Mean Plasma Concentrations of metabolite DMT: BLQ (BLQ: Below Lower Limit of Quantification (0.5 ng/mL))
[1]; time 2.00 h
  Mean Plasma Concentrations of metabolite DMT: BLQ (BLQ: Below Lower Limit of Quantification (0.5 ng/mL))
[1]; time 4.00 h
  Mean Plasma Concentrations of metabolite DMT: BLQ (BLQ: Below Lower Limit of Quantification (0.5 ng/mL))
[1]; time 7.00 h
  Mean Plasma Concentrations of metabolite DMT: BLQ (BLQ: Below Lower Limit of Quantification (0.5 ng/mL))
[1]; time 24.0 h
  Mean Plasma Concentrations of metabolite DMT: BLQ (BLQ: Below Lower Limit of Quantification (0.5 ng/mL))
